# Reference: the supplement of paper PMC10307832
# What was measured:
# Assay in all cases: relative viability (nuclei count vs DMSO), 5 days (fraction); higher = more cells survive
# [1] = compound: Cc1cc(Nc2cc(N3CCN(C)CC3)nc(Sc3ccc(NC(=O)C4CC4)cc3)n2)n[nH]1 [Tozasertib] + Nc1ncn([C@H]2C[C@H](O)[C@@H](CO)O2)c(=O)n1 [Decitabine] (partner 2 µM)
# In short: (§1)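 Relative viability is defined as nuclei in treated wells over nuclei in vehicle wells. Duplicate plates were run and medians reported. Lung cancer cell lines in 1536-well plates were dosed by pin tool one day after seeding, with one drug or with a fixed anchor-drug dose plus five library-drug doses (not always all listed) in √10 steps, and nuclei were counted after 5 days.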
# [2] = compound: Cc1cc(Nc2cc(N3CCN(C)CC3)nc(Sc3ccc(NC(=O)C4CC4)cc3)n2)n[nH]1 [Tozasertib] + CC1(C)CCC(c2ccc(Cl)cc2)=C(CN2CCN(c3ccc(C(=O)NS(=O)(=O)c4ccc(N[C@H](CCN5CCOCC5)CSc5ccccc5)c(S(=O)(=O)C(F)(F)F)c4)cc3)CC2)C1 [Navitoclax] (partner 0.5 µM)
# In short: as §1
# [3] = compound: Cc1cc(Nc2cc(N3CCN(C)CC3)nc(Sc3ccc(NC(=O)C4CC4)cc3)n2)n[nH]1 [Tozasertib] + O=C(c1cc(Cc2n[nH]c(=O)c3ccccc23)ccc1F)N1CCN(C(=O)C2CC2)CC1 [Olaparib] (partner 8 µM)
# In short: as §1
# [4] = compound: Cc1cc(Nc2cc(N3CCN(C)CC3)nc(Sc3ccc(NC(=O)C4CC4)cc3)n2)n[nH]1 [Tozasertib] + C[C@@H](Oc1cc(-c2cnn(C3CCNCC3)c2)cnc1N)c1c(Cl)ccc(F)c1Cl [Crizotinib] (partner 1 µM)
# In short: as §1
# [5] = compound: Cc1cc(Nc2cc(N3CCN(C)CC3)nc(Sc3ccc(NC(=O)C4CC4)cc3)n2)n[nH]1 [Tozasertib] + CCNC(=O)c1noc(-c2cc(C(C)C)c(O)cc2O)c1-c1ccc(CN2CCOCC2)cc1 [Luminespib] (partner 0.01 µM)
# In short: as §1
Cell Line,relative viability ([1]; first compound 0.004 µM),relative viability ([1]; first compound 0.01265 µM),relative viability ([1]; first compound 0.04 µM),relative viability ([1]; first compound 0.1265 µM),relative viability ([2]; first compound 0.004 µM),relative viability ([2]; first compound 0.01265 µM),relative viability ([2]; first compound 0.04 µM),relative viability ([2]; first compound 0.1265 µM),relative viability ([3]; first compound 0.004 µM),relative viability ([3]; first compound 0.01265 µM),relative viability ([3]; first compound 0.04 µM),relative viability ([3]; first compound 0.1265 µM),relative viability ([4]; first compound 0.01265 µM),relative viability ([4]; first compound 0.04 µM),relative viability ([4]; first compound 0.1265 µM),relative viability ([5]; first compound 0.004 µM),relative viability ([5]; first compound 0.01265 µM),relative viability ([5]; first compound 0.04 µM),relative viability ([5]; first compound 0.1265 µM),relative viability ([4]; first compound 0.004 µM)
COR-L 105,0.717,0.61,0.69,0.558,0.787,0.644,0.932,0.542,0.681,0.725,0.716,0.754,0.765,0.771,0.458,0.842,0.966,0.761,0.609,–
NCI-H2023,0.223,0.237,0.217,0.169,1.04,0.983,1.05,0.924,0.486,0.459,0.553,0.342,0.704,0.611,0.403,0.811,0.749,0.9,0.598,0.717
EPLC-272H,0.369,0.325,0.368,0.318,1.1,1.17,1.08,–,0.729,–,–,0.341,1.03,0.823,–,0.267,0.307,0.197,0.288,0.851
BEN,0.739,0.688,0.755,0.501,0.0692,0.0723,0.0504,0.0587,–,1.09,0.931,0.956,0.921,0.907,0.727,0.302,0.279,0.332,0.268,0.91
NCI-H1395,0.724,0.674,0.673,0.524,1.28,1.13,1.06,0.825,0.435,0.492,0.407,0.414,–,–,–,0.595,0.815,0.604,0.649,–
LCLC-103H,0.689,0.621,0.775,0.683,–,–,–,–,0.782,0.811,0.772,0.734,1.05,1.1,1.07,0.935,1.05,1.08,0.72,0.993
A-427,0.563,0.528,0.627,0.426,–,0.979,0.995,0.755,0.769,0.645,0.734,0.47,0.985,0.788,0.469,0.983,0.857,0.97,0.481,0.882
ChaGo-K-1,0.506,0.463,0.49,0.446,1.13,0.946,1.2,0.3,0.4,0.386,0.407,0.372,1.12,0.957,0.331,0.643,0.672,0.623,0.45,1.19
NCI-H1650,0.351,0.364,0.404,0.307,–,0.981,1.24,0.936,0.818,0.721,0.885,0.722,1.01,0.919,–,0.199,0.2,0.223,0.197,–
